In patent US9102635B2, “Substituted bisphenyl butanoic acid derivatives as NEP inhibitors with improved in vivo efficacy” (NOVARTIS AG, priority 2013, dated 2015):

Legend:
peripheral NEP = target: T1, peripheral NEP (Rattus norvegicus, UniProt P07861); assay: ANP potentiation model in conscious rats (plasma ANP after oral dose); type: in vivo, Wistar Han (WH) rats; details: for PANP % of baseline: 0- to 8-hr time-weighted average of plasma ANP, ANP infusion 450 ng/kg/min i.v.
T1 construct: from tissue; host or cells: whole animal: adult male Wistar Han rats (Charles River Labs), peripheral tissues
T1 sequence (P07861 1-750): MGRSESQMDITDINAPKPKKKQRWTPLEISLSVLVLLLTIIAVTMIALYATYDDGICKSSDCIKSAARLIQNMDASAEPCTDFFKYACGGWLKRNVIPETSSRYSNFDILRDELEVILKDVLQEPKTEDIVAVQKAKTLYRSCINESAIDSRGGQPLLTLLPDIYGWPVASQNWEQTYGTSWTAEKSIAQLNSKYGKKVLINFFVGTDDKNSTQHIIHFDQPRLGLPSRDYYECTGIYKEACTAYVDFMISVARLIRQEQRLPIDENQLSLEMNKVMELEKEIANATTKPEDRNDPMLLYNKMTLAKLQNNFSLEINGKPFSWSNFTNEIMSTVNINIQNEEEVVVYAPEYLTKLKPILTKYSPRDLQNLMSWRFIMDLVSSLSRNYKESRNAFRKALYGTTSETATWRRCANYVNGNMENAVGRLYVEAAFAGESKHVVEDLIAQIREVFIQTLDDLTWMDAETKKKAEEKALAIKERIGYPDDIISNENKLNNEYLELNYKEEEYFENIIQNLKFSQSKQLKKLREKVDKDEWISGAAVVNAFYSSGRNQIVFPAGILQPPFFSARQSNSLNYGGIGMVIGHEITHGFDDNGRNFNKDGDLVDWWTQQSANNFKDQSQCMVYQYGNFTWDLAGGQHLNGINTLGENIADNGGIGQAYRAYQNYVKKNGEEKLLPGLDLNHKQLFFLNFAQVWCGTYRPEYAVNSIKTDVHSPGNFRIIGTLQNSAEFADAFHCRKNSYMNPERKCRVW
Method: In particular, the in vivo inhibition of recombinant human neutral endopeptidase can be determined as follows:
Thus, the potentiation of plasma ANP was used as an index of the extent and duration of inhibition of peripheral NEP by the orally administered compounds.
They were housed on a 12-hr light/dark cycle (light: 6 am to 6 pm) at temperature and relative humidity set points of 72° F. and 55%, respectively. […] In this case, the evening before the experiment (˜5 pm) all but two of the rat's chow pellets were removed. On the morning of the experiment, any remaining food was removed. […] Food was returned at the experiment terminus.
Rats were surgically instrumented with catheters to allow collection of arterial blood samples and intravenous (i.v.) administration of ANP. Rats were anesthetized and maintained in a surgical plane of anesthesia with isoflurane (2% in 100% oxygen). Ophthalmic lubricant was applied to each eye to prevent corneal irritation. Meloxicam (0.2 mg/kg s.c.) was administered for analgesia. If necessary for pain management, a second injection of meloxicam was administered on the first post-operative day. Also, a dose of penicillin G (50,000 U/kg i.m.) was administered pre-operatively to prevent infection.
Under aseptic surgical conditions, a femoral artery and vein were isolated and catheters inserted. Catheters consisted of a ˜55-cm length of Tygon (PVC) Microbore tubing (0.020″, 0.060″ O.D.) bonded with cyclohexanone to a 4.5-cm length of polyurethane (0.012″ I.D., 0.025″ O.D., Micro-Renathane type MRE-025, Braintree Scientific, Inc., Braintree, Mass.) tubing. The catheters were tunneled subcutaneously and exteriorized in the mid-dorsal thoracic/abdominal region. Catheters exited through a subcutaneously anchored tether/swivel system which allowed the animal to move unrestrained in a specialized Plexiglas cage with perforated solid flooring. Catheters were flushed with sterile 0.9% saline and locked with 200 U/mL heparin in sterile 0.9% saline after the surgery was completed.
The rats were allowed to recover for at least one week before being studied while conscious and unrestrained. Rats were infused intravenously (450 ng/kg/min) with rat ANP (ANP (1-28), Product #14-5-41, American Peptide Company, Inc., Sunnyvale, Calif.). After 1 hr of ANP infusion, rats were treated by oral gavage with 1 mL/kg of vehicle (0.5% methylcellulose+0.1% Tween 80) or a selected dose of NEP inhibitor. ANP infusion was continued for an additional 8 hr. Arterial blood samples (0.20 mL) were withdrawn from the femoral arterial cannulas at various times (baseline or time 0, 0.25, 0.5, 1, 2, 4, 6, and 8 hr) into a collection tube containing 0.004 mL EDTA/protease inhibitor (PI) cocktail. Blood samples were centrifuged at 4° C. and 20K g to separate plasma. Plasma samples were aliquoted and frozen (−70° C.) for later analysis of plasma ANP (PANP) levels. The O— to 8-hr time-weighted averages of the PANP concentrations expressed as a percent of the baseline (time 0) PANP values were used to generate dose-response relationships.
The blood collection cocktail consisted of broad-spectrum serine and cysteine PIs and EDTA. […] It also anticoagulated the blood.
The frozen plasma sample was thawed on ice and 10 μL of plasma was diluted 1:10 in 1× assay buffer supplied with the kit. Ten μL of the diluted sample was then assayed. The manufacturer's instructions were followed for the assay protocol (total volume per well was expanded to 50 μl with 1× assay buffer). Absorbance was read (Molecular Devices SpectraMax Paradigm Multi-Mode Detection Platform) at 450 nm within ten minutes of the assay termination.

[1] = target: T2, recombinant human neutral endopeptidase (Homo sapiens, UniProt P08473); assay: in vitro inhibition of recombinant human neutral endopeptidase (fluorescence lifetime assay); type: biochemical; details: 1 hour pre-incubation, 1 hour reaction, room temperature, pH 7.4; read-out: Human NEP IC50
T2 construct: made in house; host or cells: insect cells
Excerpt: The activity of a compound according to the present invention can be assessed by the following in vitro and in vivo methods and/or by the following in vitro and in vivo methods well-described in the art. See Doering K, Meder G, Hinnenberger M, Woelcke J, Mayr L M, Hassiepen U, (2009) “A fluorescence lifetime-based assay for protease inhibitor profiling on human kallikrein 7”, Biomol Screen, January; 14(1):1-9.
In particular, the in vitro inhibition of recombinant human neutral endopeptidase can be determined as follows:
Recombinant human neutral endopeptidase (expressed in insect cells and purified using standard methods, final concentration 7 pM) is pre-incubated with test compounds at various concentrations for 1 hour at room temperature in 10 mM sodium phosphate buffer at pH 7.4, containing 150 mM NaCl and 0.05% (w/v) CHAPS. The enzymatic reaction is started by the addition of a synthetic peptide substrate Cys(PT14)-Arg-Arg-Leu-Trp-OH to a final concentration of 0.7 μM. Substrate hydrolysis leads to an increase in fluorescence lifetime (FLT) of PT14 measured by means of a FLT reader as described by Doering et al. (2009) as referenced supra. The effect of the compound on the enzymatic activity was determined after 1 hour (t=60 min) incubation at room temperature. […]

T2 sequence (P08473 whole entry): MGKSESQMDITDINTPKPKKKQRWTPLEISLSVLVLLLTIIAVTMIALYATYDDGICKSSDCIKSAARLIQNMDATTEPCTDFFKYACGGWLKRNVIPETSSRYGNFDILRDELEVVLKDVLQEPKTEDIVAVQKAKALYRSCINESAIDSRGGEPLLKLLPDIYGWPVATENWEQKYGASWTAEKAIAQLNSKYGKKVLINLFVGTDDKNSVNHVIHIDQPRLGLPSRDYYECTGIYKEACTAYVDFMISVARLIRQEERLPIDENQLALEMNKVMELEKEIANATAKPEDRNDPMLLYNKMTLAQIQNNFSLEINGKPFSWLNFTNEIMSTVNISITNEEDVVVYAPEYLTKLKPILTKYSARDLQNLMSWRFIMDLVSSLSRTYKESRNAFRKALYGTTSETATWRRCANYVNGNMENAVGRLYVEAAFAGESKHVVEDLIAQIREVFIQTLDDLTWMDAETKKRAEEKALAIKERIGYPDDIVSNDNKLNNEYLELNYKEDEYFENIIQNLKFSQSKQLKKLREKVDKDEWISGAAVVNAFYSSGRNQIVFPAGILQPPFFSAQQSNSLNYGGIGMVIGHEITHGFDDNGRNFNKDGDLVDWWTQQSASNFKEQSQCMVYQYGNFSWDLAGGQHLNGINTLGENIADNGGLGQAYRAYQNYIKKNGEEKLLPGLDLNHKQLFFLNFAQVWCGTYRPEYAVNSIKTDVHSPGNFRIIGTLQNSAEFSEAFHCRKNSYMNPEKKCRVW

Row | PANP % of baseline (peripheral NEP; dose 3 mg/kg oral gavage) | PANP % of baseline (peripheral NEP; dose 10 mg/kg oral gavage) | PANP % of baseline (peripheral NEP; dose 30 mg/kg oral gavage) | PANP % of baseline (peripheral NEP; dose 100 mg/kg oral gavage) | IC50 [1] [nM] | in vivo efficacy compared to Example 5-46 of WO2010/136493 (peripheral NEP; ANP potentiation model, oral) | PANP % of baseline (peripheral NEP; dose 1 mg/kg oral gavage) | SMILES
1 | 137 % of baseline | 126 % of baseline | 185 % of baseline | 254 % of baseline |  |  |  | O=C(O)C[C@@H](Cc1ccc(-c2cccc(Cl)c2)cc1)NC(=O)c1n[nH]c(=O)o1 [Example 5-46 of WO2010/136493, reference compound]
2 | 183 % of baseline | 238 % of baseline |  |  | 0.06 | superior efficacy | 141 % of baseline | COc1ccc(F)cc1-c1ccc(C[C@H](CC(=O)O)NC(=O)c2n[nH]c(=O)o2)cc1 [Example 1, (R)-4-(5′-fluoro-2′-methoxy-[1,1-biphenyl]-4-yl)-3-(5-oxo-4,5-dihydro-1,3,4-oxadiazole-2-carboxamido)butanoic acid]
